Reference: patent US6592867B2, “Antimicrobial composition containing an oxidoreductase and an enhancer of the N-hydroxyanilide-type” (Novozymes A/S, priority 1998, dated 2003)

Experiments:
Format in all cases: cell-based
[1] = system: Pseudomonas fluorescens; experiment: Bactericidal activity of phenol oxidizing enzyme plus enhancing agent, surviving cells enumerated by Malthus (Examples 1 and 3); conditions: for Bactericidal activity (reduction in living cell number) / Bactericidal activity: 20 min, 40° C.; for Cell reduction: enhancing agent 0.2 mM, hydrogen peroxide 0.5 mM, rCiP 3 POXU/ml, total kill
Method: (§1) Antimicrobial activity was evaluated in 0.05 M MES-buffer (Sigma M8250) (pH 6) or 0.05 HEPES-buffer (Sigma H3375) (pH 8); buffers were sterilised by filter sterilisation. The antimicrobial activity was determined against Pseudomonas fluorescens (Gram et al. 1990, International Journal of Food Microbiology 10: 303-316) and Staphylococcus epidermidis (DSM 20042). Cells were grown in Tryptone Soya Broth (Oxoid CM129) at 30° C. (S. epidermidis) or 25° C. (P. fluorescens) for 24 h and diluted in the MES-buffer to a final cell concentration of approximately 10^6 cfu/ml. The cell suspensions were mixed with rCiP (3 POXU/ml), enhancing agent (0.2 mM) and hydrogen peroxide (0.5 mM) for 20 min at 40° C. The bactericidal activity was determined by incubation in Malthus. Detection times measured by the Malthus instrument were converted to cfu/ml by a calibration curve. Either direct or Indirect Malthus measurements were used when enumerating total survival cells (Malthus Flexi M2060, Malthus Instrument Limited). By the direct measurements, the cell metabolism was determined by conductance measurements in the growth substrate. By the indirect measurements, 3 ml of growth medium was transferred to the outer chamber of the indirect Malthus cells, and 0.5 ml of sterile KOH (0.1 M) was transferred to the inner chamber. The cell suspensions were after enzyme treatment transferred to the outer chamber of the Malthus cell. As cells are growing in the outer chamber they produce CO2 which will dissolve in the KOH in the inner chamber and thereby change the conductance of the KOH. The amount of CO2 formed by the respiring cells surviving the enzyme treatment was used for estimating the number of viable cells. When the conductance change is measurable by the Malthus, a detection time (dt) will be recorded. The dt's were converted to colony counts by use of a calibration curve relating cfu/ml to dt (Johansen et al. 1995. Journal of Applied Bacteriology 78:297-303, Johansen et al. 1997, Applied and Environmental Microbiology 63:3724-3728). Antibacterial activity of Coprinus cinereus peroxidase (rCiP), Polyporus pinsitus laccase (rPpL), Coprinus cinereus laccase (rCcL) and Rhizoctonia solani laccase (rRsL) (as described in WO 95/07988) was determined with different enhancing agents at pH 6 and 8 (buffers; see Example 1). The rCiP was combined with 0.5 mM hydrogen peroxide. Antimicrobial activity of rCiP and rPpL was determined against Pseudomonas fluorescens (Gram et al. 1990, International Journal of Food Microbiology 10:303-316), whereas antimicrobial activity of rCcL and rRsL was determined against Pseudomonas aeruginosa (ATCC 10145). The bactericidal activity was determined as described in example 1. The results are shown as the reduction in living cell number. Thus, a reduction of 4 correspond to a 4 log reduction of living cells e.g. from 10^6 CFU/ml to 10^2 CFU/ml.

[2] = system: Pseudomonas aeruginosa (ATCC 10145); experiment: Bactericidal activity of laccase plus enhancing agent, surviving cells enumerated by Malthus (Examples 2 and 3)
Method: as §1, with “The antimicrobial” for “Antimicrobial activity was evaluated in 0.05 M MES-buffer (Sigma M8250) (pH 6) or 0.05 HEPES-buffer (Sigma H3375) (pH 8); buffers were sterilised by filter sterilisation. The antimicrobial”, “activity of Polyporus pinsitus laccase (rPpL), obtained as described in WO 96/00290), and Coprinus cinereus laccase (rCcL), obtained as described in WO 97/08325, was determined with N-hydroxyacetanilide as enhancing agent against Pseudomonas aeruginosa (ATCC 10145), Enterobacter aerogenes (ATCC 13048) and Enterococcus faecalis (DSM 2570). The bactericidal activity was determined as described in Example 1, the antimicrobial activity of rPpL (1 mg/L) was evaluated at pH 6, whereas rCcL (1 mg/L) was evaluated at pH 8. Antibacterial activity of Coprinus cinereus” for “activity of Coprinus cinereus”

[3] = system: Enterococcus faecalis (DSM 2570); experiment: Bactericidal activity of laccase plus N-hydroxyacetanilide, Malthus (Example 2); conditions: 20 min, 40° C.
Method: (§2) The antimicrobial activity was determined against Pseudomonas fluorescens (Gram et al. 1990, International Journal of Food Microbiology 10: 303-316) and Staphylococcus epidermidis (DSM 20042). Cells were grown in Tryptone Soya Broth (Oxoid CM129) at 30° C. (S. epidermidis) or 25° C. (P. fluorescens) for 24 h and diluted in the MES-buffer to a final cell concentration of approximately 10^6 cfu/ml. The cell suspensions were mixed with rCiP (3 POXU/ml), enhancing agent (0.2 mM) and hydrogen peroxide (0.5 mM) for 20 min at 40° C. The bactericidal activity was determined by incubation in Malthus. Detection times measured by the Malthus instrument were converted to cfu/ml by a calibration curve. Either direct or Indirect Malthus measurements were used when enumerating total survival cells (Malthus Flexi M2060, Malthus Instrument Limited). By the direct measurements, the cell metabolism was determined by conductance measurements in the growth substrate. By the indirect measurements, 3 ml of growth medium was transferred to the outer chamber of the indirect Malthus cells, and 0.5 ml of sterile KOH (0.1 M) was transferred to the inner chamber. The cell suspensions were after enzyme treatment transferred to the outer chamber of the Malthus cell. As cells are growing in the outer chamber they produce CO2 which will dissolve in the KOH in the inner chamber and thereby change the conductance of the KOH. The amount of CO2 formed by the respiring cells surviving the enzyme treatment was used for estimating the number of viable cells. When the conductance change is measurable by the Malthus, a detection time (dt) will be recorded. The dt's were converted to colony counts by use of a calibration curve relating cfu/ml to dt (Johansen et al. 1995. Journal of Applied Bacteriology 78:297-303, Johansen et al. 1997, Applied and Environmental Microbiology 63:3724-3728). Antibacterial activity of Polyporus pinsitus laccase (rPpL), obtained as described in WO 96/00290), and Coprinus cinereus laccase (rCcL), obtained as described in WO 97/08325, was determined with N-hydroxyacetanilide as enhancing agent against Pseudomonas aeruginosa (ATCC 10145), Enterobacter aerogenes (ATCC 13048) and Enterococcus faecalis (DSM 2570). The bactericidal activity was determined as described in Example 1, the antimicrobial activity of rPpL (1 mg/L) was evaluated at pH 6, whereas rCcL (1 mg/L) was evaluated at pH 8.

[4] = system: Enterobacter aerogenes (ATCC 13048); experiment: as above; conditions: for Bactericidal activity (dose-response): 20 min, 40° C.
Method: as §2

[5] = rCiP = 3 POXU/ml + 0.5 mM hydrogen peroxide, pH 6
[6] = rCiP = 3 POXU/ml + 0.5 mM hydrogen peroxide, pH 8
[7] = rCcL = 5 mg/L, pH 6, 20 min, 40° C.
[8] = rCcL = 5 mg/L, pH 8, 20 min, 40° C.
[9] = rRsL = 5 mg/L, pH 6, 20 min, 40° C.
[10] = rRsL = 5 mg/L, pH 8, 20 min, 40° C.
[11] = rPpL 1 mg/L, pH 6, high concentration of N-hydroxyacetanilide

CC(=O)c1ccc(N(O)C(C)=O)cc1 [N1-(4-acetylphenyl)-N1-hydroxyacetamide]
Bactericidal activity (reduction in living cell number) [1, 5]: 1.2 log CFU/ml

CC(=O)N(O)c1ccc(C#N)cc1 [N1-(4-cyanophenyl)-N1-hydroxyacetamide]
Bactericidal activity (reduction in living cell number) ([1]; rPpL = 5 mg/L, pH 6): 1.7 log CFU/ml

CC(=O)N(O)c1ccc(O)cc1 [N1-(4-hydroxyphenyl)-N1-hydroxyacetamide]
Bactericidal activity (reduction in living cell number) [1, 5]: 3.7 log CFU/ml
Bactericidal activity (reduction in living cell number) [1, 6]: 1.1 log CFU/ml

CC(=O)N(O)c1cccc([N+](=O)[O-])c1 [N1-hydroxy-N1-(3-nitrophenyl)acetamide]
Bactericidal activity (reduction in living cell number) [1, 5]: 1.5 log CFU/ml
Bactericidal activity (reduction in living cell number) [1, 6]: 1.1 log CFU/ml
Bactericidal activity (reduction in living cell number) ([1]; rPpL = 5 mg/L, pH 6): 1.6 log CFU/ml

CC(=O)N(O)c1ccc([N+](=O)[O-])cc1 [N1-hydroxy-N1-(4-nitrophenyl)acetamide]
Bactericidal activity (reduction in living cell number) [1, 5]: 4.2 log CFU/ml
Bactericidal activity (reduction in living cell number) [1, 6]: 1.2 log CFU/ml
Bactericidal activity (reduction in living cell number) ([1]; rPpL = 5 mg/L, pH 6): 6.7 log CFU/ml
Bactericidal activity (reduction in living cell number) ([1]; rPpL = 5 mg/L, pH 8): 1.7 log CFU/ml

N#Cc1ccc(C(=O)N(O)c2ccccc2)cc1 [N1-hydroxy-N1-phenyl-4-cyanobenzamide]
Bactericidal activity (reduction in living cell number) [2, 7]: 3.5 log CFU/ml
Bactericidal activity (reduction in living cell number) [2, 8]: 6.5 log CFU/ml
Bactericidal activity (reduction in living cell number) [2, 9]: 3.5 log CFU/ml
Bactericidal activity (reduction in living cell number) [2, 10]: 6.5 log CFU/ml
Bactericidal activity (reduction in living cell number) [1, 5]: 6.1 log CFU/ml
Bactericidal activity (reduction in living cell number) [1, 6]: 2.1 log CFU/ml
Bactericidal activity (reduction in living cell number) ([1]; rPpL = 5 mg/L, pH 6): 2.5 log CFU/ml

COc1ccc(C(=O)N(O)c2ccccc2)cc1 [N1-hydroxy-N1-phenyl-4-methoxybenzamide]
Bactericidal activity (reduction in living cell number) [2, 7]: 5.9 log CFU/ml
Bactericidal activity (reduction in living cell number) [2, 8]: 6.3 log CFU/ml
Bactericidal activity (reduction in living cell number) [2, 9]: 3.8 log CFU/ml
Bactericidal activity (reduction in living cell number) [2, 10]: 4.6 log CFU/ml
Bactericidal activity (reduction in living cell number) [1, 5]: 4.1 log CFU/ml
Bactericidal activity (reduction in living cell number) ([1]; rPpL = 5 mg/L, pH 8): 4.8 log CFU/ml

O=C(c1ccc([N+](=O)[O-])cc1)N(O)c1ccccc1 [N1-hydroxy-N1-phenyl-4-nitrobenzamide]
Bactericidal activity (reduction in living cell number) [1, 6]: 1.4 log CFU/ml

CC(=O)N(O)c1ccccc1 [N-hydroxyacetanilide]
Enhancing agent concentration at which bactericidal activity was obtained ([2]; combined with laccase (rPpL or rCcL, 1 mg/L), 20 min, 40° C.): above 200 μM
Bactericidal activity (dose-response) ([2]; rCcL 1 mg/L, pH 8, 20 min, 40° C.): significant bactericidal activity
Bactericidal activity (dose-response) ([2]; rPpL 1 mg/L, pH 6, 20 min, 40° C.): significant bactericidal activity
Bactericidal activity at high concentration of enhancing agent [2, 11]: total kill
Bactericidal activity (dose-response) ([3]; rCcL 1 mg/L, pH 8): significant bactericidal activity
Bactericidal activity (dose-response) ([3]; rPpL 1 mg/L, pH 6): significant bactericidal activity
Bactericidal activity (dose-response) ([4]; rCcL 1 mg/L, pH 8): significant bactericidal activity
Bactericidal activity (dose-response) ([4]; rPpL 1 mg/L, pH 6): significant bactericidal activity
Bactericidal activity at high concentration of enhancing agent [4, 11]: total kill
Bactericidal activity ([1]; combined system: enhancing agent 0.2 mM, hydrogen peroxide 0.5 mM and rCiP 3 POXU/ml): total kill
Cell reduction ([1]; pH 6): approximately 10^6 CFU/ml
Cell reduction ([1]; pH 8): approximately 10^6 CFU/ml
Bactericidal activity ([1]; enhancing agent (0.2 mM) combined with hydrogen peroxide (0.5 mM), no enzyme): No bactericidal activity
Bactericidal activity ([1]; enhancing agent alone (0.2 mM), no enzyme, no hydrogen peroxide): No bactericidal activity
